Experiment: [14C]-AZD2014 metabolism and excretion after a single dose in rats
Format: in vivo

CNC(=O)c1cccc(-c2ccc3c(N4CCOC[C@@H]4C)nc(N4CCOC[C@@H]4C)nc3n2)c1 [AZD2014]
faecal excretion, % of dosed radioactivity: ~85%
urinary excretion, % of dosed radioactivity: approximately 2%

Reference: PMC4512239 (Clinical cancer research : an official journal of the …, 2015)
